# Data from US9675617B2, “Tetrahydrofolates in combination with EGFR-inhibitors” (ISOFOL MEDICAL AB, priority 2012, dated 2017).
# What was measured:
# [1] = in the body; no source or species given; cited from earlier work
# [2] = system: LoVo tumor cells; assay: Anti-tumoral efficacy in the colorectal adenocarcinoma xenograft model LoVo; format: in vivo, NCr nu/nu mice
# Method: Study Design: A total of 50 female NCr nu/nu mice (10 per group) at the age of 8-12 weeks were injected with 1×10^7 LoVo tumor cells in 50% Matrigel sc in flank. After seven days they were administered intraperitoneal injections according to the schedule in table 2. Animals were monitored individually. The endpoint of the experiment was a tumor weight of 1000 mm^3 or 75 days, whichever came first. Responders could be followed longer. When the endpoint was reached, the animals were euthanized. Body weight (g) and tumor volume (mm^3) was measured on days 1, 2, 3, 4, 5, 7, 11, 14, 18, 21, 25, 28, 32, 35, 39, 42, 46, 49, 53, 56, 60, 63, 67, 70 and 74.
Structure (SMILES),half life [1],"Median tumor volume over time (FIG. 2), in words ([2]; LoVo xenograft, days 1-74)","Time to endpoint, Kaplan-Meier plot (FIG. 3), in words ([2]; endpoint: tumor weight of 1000 mm^3 or 75 days)"
"Nc1nc2c(c(=O)[nH]1)N1CN(c3ccc(C(=O)N[C@@H](CCC(=O)O)C(=O)O)cc3)CC1CN2 (stereo partly shown) [methylene-THF, 5,10-methylene tetrahydrofolate]",approximately 20 min,enhances the anti-tumor growth effect of cetuximab,enhancing the beneficial effect of cetuximab
"CN1c2c(nc(N)[nH]c2=O)NCC1CNc1ccc(C(=O)N[C@@H](CCC(=O)O)C(=O)O)cc1 (stereo partly shown) [methyl-THF, 5-methyltetrahydrofolate]",approximately 5 hours,,
